Data reported in patent US20240389587A1, “COMPOSITIONS AND METHODS FOR CONTROLLING PHYTOPATHOGENIC INFECTIONS” (INSTITUT NATIONAL DE RECHERCHE POUR L'AGRICULTURE, …, priority 2021, published 2024).

target: T1, IRE1 (Saccharomyces cerevisiae, UniProt P32361); assay: IRE1 inhibitors screening (inhibition of transcriptional activator HAC1 in yeast); assay type: cell-based; conditions: not given
T1 construct: endogenous in cells
Description: A series of natural products were screened for their capacity to inhibit the UPR pathway via the inhibition of IRE1 in an in vitro screening test, based inhibition of the transcriptional activator HAC1 in Saccharomyces cerevisiae (the IRE1 protein is the ‘sole effector of the UPR pathway in fungi).

T1 sequence (P32361 19-1115): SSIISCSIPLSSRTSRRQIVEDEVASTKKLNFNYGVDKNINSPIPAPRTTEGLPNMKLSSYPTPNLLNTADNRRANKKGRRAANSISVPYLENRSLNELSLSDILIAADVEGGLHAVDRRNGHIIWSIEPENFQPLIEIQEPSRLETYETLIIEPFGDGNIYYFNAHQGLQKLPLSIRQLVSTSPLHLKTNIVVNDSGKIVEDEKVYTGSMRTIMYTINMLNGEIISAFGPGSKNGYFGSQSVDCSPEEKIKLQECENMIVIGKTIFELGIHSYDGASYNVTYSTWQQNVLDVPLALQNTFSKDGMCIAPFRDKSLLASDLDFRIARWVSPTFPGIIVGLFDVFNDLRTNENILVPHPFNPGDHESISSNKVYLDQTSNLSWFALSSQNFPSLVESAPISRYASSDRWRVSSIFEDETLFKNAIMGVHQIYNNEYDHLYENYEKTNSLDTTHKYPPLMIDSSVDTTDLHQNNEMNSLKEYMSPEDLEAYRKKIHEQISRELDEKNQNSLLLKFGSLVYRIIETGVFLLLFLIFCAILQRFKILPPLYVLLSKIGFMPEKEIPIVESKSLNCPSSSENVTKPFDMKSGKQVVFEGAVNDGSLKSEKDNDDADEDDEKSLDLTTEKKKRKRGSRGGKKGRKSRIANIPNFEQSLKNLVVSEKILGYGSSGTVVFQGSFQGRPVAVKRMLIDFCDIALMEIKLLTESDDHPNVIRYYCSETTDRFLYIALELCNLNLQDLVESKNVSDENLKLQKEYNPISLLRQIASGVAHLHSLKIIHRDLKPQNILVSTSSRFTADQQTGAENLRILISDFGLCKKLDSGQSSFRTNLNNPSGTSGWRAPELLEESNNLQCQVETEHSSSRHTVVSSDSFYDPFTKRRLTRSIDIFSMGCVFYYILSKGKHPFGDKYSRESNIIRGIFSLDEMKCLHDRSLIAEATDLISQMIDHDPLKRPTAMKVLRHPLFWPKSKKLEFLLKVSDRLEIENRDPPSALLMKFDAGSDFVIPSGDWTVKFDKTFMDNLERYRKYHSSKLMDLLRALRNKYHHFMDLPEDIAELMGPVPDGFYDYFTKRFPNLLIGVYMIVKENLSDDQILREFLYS

First: C=C(CO)C(=O)O[C@H]1CC(=C)[C@@H]2C[C@H](O)C(=C)[C@@H]2[C@H]2OC(=O)C(=C)[C@@H]21 [Cynaropicrin]
Second: Oc1cc(O)c2c(c1)O[C@H](c1ccc(O)c(O)c1)[C@H](O)[C@H]2c1c(O)cc(O)c2c1O[C@H](c1ccc(O)c(O)c1)[C@H](O)C2 [Procyanidin B2]
The “μ (% activation) ± σ” value of the first is higher: 105.6 ± 0.7% for the first, 101.6 ± 1% for the second.

For (−)-Argemonine, the “μ (% activation) ± σ” value was 102.6 ± 2.0%.

In the case of `O=C1C=CC(=O)c2c(O)cccc21` [Juglone, 5-hydroxy-1,4-naphthalenedione], the IC50 is reported as 12.8 µM.

In the case of `O=C1C=CC(=O)c2c(O)cccc21` [Juglone, 5-hydroxy-1,4-naphthalenedione], the “IRE1 inhibition (in words)” value is reported as “inhibit IRE1 in a micromolar scale”.

same assay, conditions: in vitro screening; IRE1 activity of less than 80% = retained as IRE1 inhibitor

`CC(C)=CCc1c(O)c(CC=C(C)C)c2oc3c(O)ccc(O)c3c(=O)c2c1O` [Gartanin] and `C[C@H](C/C=C/C(C)(C)O)[C@@H]1CC[C@]2(C)C3=C(CC[C@@]12C)[C@@]1(C)CC[C@H](O)C(C)(C)C1CC3` (stereo partly drawn) [(20R,23E)-Eupha-8,23-diene-3b,25-diol] are within error of each other in “μ (% activation) ± σ” value: 95.1 ± 5.5% for the first, 100.6 ± 2.5% for the second.

Steponine and `Cc1cc(O)c2c(c1)C(=O)c1cc(O)cc(O)c1C2=O` [Emodin] are within error of each other in “μ (% activation) ± σ” value: 103.4 ± 1.3% for the first, 104.5 ± 3.1% for the second.

`O=c1c2cc(O)ccc2oc2c(O)c(O)c(O)c(O)c12` [2,5,6,7,8-Pentahydroxyxanthone] and `CC(C)=CCc1c(O)cc2oc3c(CC=C(C)C)c(O)c(O)c(CC=C(C)C)c3c(=O)c2c1O` [Garcinon E] are within error of each other in “μ (% activation) ± σ” value: 102.3 ± 0.7% for the first, 101.6 ± 3.9% for the second.

`Oc1cc(O)c2c(c1)O[C@H](c1ccc(O)c(O)c1)[C@H](O)C2` [Epicatechin] and `COc1c(O)ccc2oc3ccccc3c(=O)c12` [1-methoxy-2-hydroxy-xanthone] are within error of each other in “μ (% activation) ± σ” value: 101.4 ± 0.4% for the first, 97.9 ± 3.6% for the second.

`COc1c(O)cc2oc3cc4c(c(O)c3c(=O)c2c1CC=C(C)C)C=CC(C)(C)O4` [9-hydroxycalabaxanthone] and `CC1=CC(=O)C(C(C)C)=CC1=O` [Thymoquinone] are within error of each other in “μ (% activation) ± σ” value: 103.5 ± 2.8% for the first, 104.3 ± 2.2% for the second.

`CC(=O)O[C@H]1C(=O)c2c(O)cc(O)cc2O[C@@H]1c1ccccc1` [Pinobanksine 3-O-acetate] and `c1cc2c(c3c1C[C@H]1c4cc5c(cc4CCN1C3)OCO5)OCO2` [Stylopine] are within error of each other in “μ (% activation) ± σ” value: 100.3 ± 2.7% for the first, 101.4 ± 4.1% for the second.

First: O=C1C=CC(=O)c2c(O)cccc21 [Juglone, 5-hydroxy-1,4-naphthalenedione]
Second: C=CCc1ccc(O)c(-c2ccc(O)c(CC=C)c2)c1 [Honokiol]
The “μ (% activation) ± σ” value of the first is lower: 43.5 ± 3.7% for the first, 93.9 ± 2% for the second.

`CC(C)=C/C=C/C(C)=C/[C@H]1CC[C@@H]2[C@@]3(C)CC[C@H](O)C(C)(C)[C@@H]3CC[C@@]2(C)[C@@]12COC(=O)C2` [Ebelin lactone] and “5,6-O-dimethyl-2-deprenylrheediaxanthone” are within error of each other in “μ (% activation) ± σ” value: 102.5 ± 0.9% for the first, 100.3 ± 1.6% for the second.

`COc1cc(C(=O)O)cc(OC)c1O` [Syringic acid] and `COc1ccc2cc1Oc1ccc(cc1)C[C@H]1c3c(cc4c(c3Oc3cc5c(cc3OC)CCN(C)[C@@H]5C2)OCO4)CCN1C` [Cepharantine] are within error of each other in “μ (% activation) ± σ” value: 97.8 ± 3.1% for the first, 102.2 ± 4.0% for the second.

First: COc1c(OC)c(O)c2c(=O)c(O)c(-c3ccccc3)oc2c1OC [3,5-dihydroxy-6,7,8-trimethoxyflavone]
Second: COc1c(O)cc2oc3cc(O)c(CC=C(C)C)c(O)c3c(=O)c2c1CC=C(C)C [α-mangostin]
The “μ (% activation) ± σ” value of the first is higher: 98.3 ± 2.4% for the first, 67.5 ± 0.2% for the second.

2-Deprenyl-rheediaxanthone B and `C=CC(C)(C)c1c2c(c(O)c3c(=O)c4cccc(O)c4oc13)C=CC(C)(C)O2` [Caloxanthone C] are within error of each other in “μ (% activation) ± σ” value: 97.3 ± 4.2% for the first, 104.2 ± 2.8% for the second.

Going from `O=c1c(O)c(-c2ccc(O)c(O)c2)oc2cc(O)cc(O)c12` [Quercetin] to Mammea A/AA cycloF, the “μ (% activation) ± σ” value falls from 98.5 ± 1.4% to 93.8 ± 1.1%.

First: O=C1C[C@@H](c2ccc(O)cc2)Oc2cc(O)cc(O)c21 [Naringenin]
Second: CC(C)=CCC[C@@H](C)[C@@H]1CC[C@]2(C)C3=C(CC[C@@]12C)[C@@]1(C)CC[C@H](O)C(C)(C)[C@@H]1CC3 [Euphol]
The “μ (% activation) ± σ” value of the first is lower: 101.1 ± 1.2% for the first, 105.3 ± 0.7% for the second.
